Values quoted from earlier work, collected in article PMC11333285, “Inhibition of lysine acetyltransferase KAT6 in ER^+HER2^− metastatic breast cancer: a phase 1 trial” (Nature Medicine, 2024).
Like-named read-outs stand apart in the source and are kept apart here.

Key:
mBC with ESR1 mutations = tested on: mBC with ESR1 mutations; set-up: method as in PMID 35584336; details: patients with ESR1 mutations
HR+/HER2− mBC [1] = tested on: HR+/HER2− mBC; set-up: method as in PMID 34357781; details: HR+/HER2− mBC progressed after aromatase inhibitors
HR+/HER2− mBC [2] = tested on: HR+/HER2− mBC; set-up: method as in PMID 35583555, PMID 35584336; details: all comers after first-line CDK4/6 inhibitors and ET

In the case of CCNCCc1ccc(CN(CC)c2cc(OC)ccc2[C@@H]2CCc3cc(O)ccc3C2)cc1 [elacestrant], the mPFS (mBC with ESR1 mutations) is listed as 3.8 months.
In the case of Nc1ccccc1NC(=O)c1ccc(CNC(=O)OCc2cccnc2)cc1 [entionostat plus ET], the mPFS (HR+/HER2− mBC [1]) is listed as 3.3 months.
In the case of C[C@]12CC[C@@H]3c4ccc(O)cc4C[C@@H](CCCCCCCCC[S+]([O-])CCCC(F)(F)C(F)(F)F)[C@H]3[C@@H]1CC[C@@H]2O (stereo partly shown) [fulvestrant], the CBR (HR+/HER2− mBC [2]) is given as 13.7% and the mPFS (HR+/HER2− mBC [2]) is given as 2 months.
